Data published in US6034134A, “1-Amino-alkylcyclohexane NMDA receptor antagonists” (Merz + Co. GmbH & Co., priority 1998, dated 2000).
pIC50: −log10 of the molar value. Structures can show the parent of a compound that is named as a salt. Where two headings read alike, the source gives them in different places.

Legend:
[1] = PTZ-induced convulsions; assay type: in vivo, mice; conditions: Mus musculus, ip; read-out: ED50 in the PTZ test
[2] = test system: NMDA receptor; experiment: Patch clamp: NMDA-induced inward currents in cultured hippocampal neurones; assay type: cell-based, rat
Procedure: Hippocampi were obtained from rat embryos (E20 to E21) and were then transferred to calcium and magnesium free Hank's buffered salt solution (Gibco) on ice. Cells were mechanically dissociated in 0.05% DNAase/0.3% ovomucoid (Sigma) following an 8 minute pre-incubation with 0.66% trypsin/0.1% DNAase (Sigma). The dissociated cells were then centrifuged at 18 ×g for 10 minutes, re-suspended in minimum essential medium (Gibco) and plated at a density of 150,000 cells cm^-2 onto poly-L-lysine (Sigma)-precoated plastic petri dishes (Falcon). The cells were nourished with NaHCO3 /HEPES-buffered minimum essential medium supplemented with 5% fetal calf serum and 5% horse serum (Gibco) and incubated at 37° C. with 5% CO2 at 95% humidity. […] Thereafter the medium was exchanged partially twice weekly.
Patch clamp recordings were made from these neurones with polished glass electrodes (4-6 m.OMEGA.) in the whole cell mode at room temperature (20-22° C.) with the aid of an EPC-7 amplifier (List). Test substances were applied by switching channels of a custom-made fast superfusion system with a common outflow (10-20 ms exchange times). The contents of the intracellular solution were as follows (mM): CsCl (120), TEACl (20), EGTA (10), MgCl2 (1), CaCl2 -(0.2), glucose (10), ATP(2), cAMP (0.25); pH was adjusted to 7.3 with CsOH or HC1. The extracellular solutions had the following basic composition (mM): NaCl (140), KCl (3), CaCl2 (0.2), glucose (10), HEPES (10), sucrose (4.5), tetrodotoxin (TTX 3*10^-4). Glycine (1 μM) was present in all solutions: a concentration sufficient to cause around 80-85% activation of glycineB receptors. Only results from stable cells were accepted for inclusion in the final analysis, i.e., following recovery of responses to NMDA by at least 75% of their depression by the antagonists tested.
(§1) IC50 s in patch clamp, excitotoxicity, and binding studies were calculated according to the four parameter logistic equation using the Grafit computer program (Erithacus Software, England). Ki value for binding studies were then determined according to Cheng and Prusoff. Binding values presented are means±SEM of 3-5 determinations (each performed in duplicate). […] Pearson product moment correlation analysis (Sigma Stat, Jandel Scientific) was used to compare in vitro potencies and in vivo anticonvulsant activity.

[3] = Procedure: All animals were kept with water and food ad libitum under a 12 hour light-dark cycle (light on at 6 a.m.) and at a controlled temperature (20±0.5° C.). All e experiments were performed between 10 a.m. and 5 p.m. Tested agents were injected 30 min. i.p. before the induction of convulsions if not stated otherwise (see below). All compounds were dissolved in 0.9% saline.
[4] = NMDA-induced convulsions; assay type: in vivo, mice; conditions: Mus musculus, ip; read-out: ED50 in the NMDA test
[5] = human, in vivo; cited from earlier work
[6] = Rotarod test (motor coordination, ataxia) in mice, therapeutic index versus MES; assay type: in vivo; conditions: mouse, in vivo, ip; ED50 for rotarod failure divided by ED50 for MES; read-out: TI Rot.
Procedure: All compounds were dissolved in 0.9% saline.
The MES test was performed together with tests for myorelaxant action (traction reflex) and motor coordination (rotarod). For the traction reflex test mice were placed with their forepaws on a horizontal rod and were required to place all 4 paws on the wire within 10 seconds. To test ataxia (motor coordination) mice were placed on rotarod (5 rpm) and were required to remain on the rod for 1 minute. […] These tests were followed by MES (100 Hz, 0.5 second shock duration, 50 mA shock intensity, 0.9 ms impulse duration, Ugo Basile) applied through corneal electrodes. The presence of tonic convulsions was scored (tonic extension of hind paws with minimum angle to the body of 90°). The aim was to obtain ED50 s for all parameters scored (anticonvulsive activity and motor side effects) with use of the Litchfield Wilcoxon test for quantal dose responses. Division of the ED50 for side effects (ataxia or myorelaxation) by the ED50 for antagonism of electroshock convulsions was used as a therapeutic index (TI).
as §1, with “Prusoff.” for “Prusoff. Binding values presented are means±SEM of 3-5 determinations (each performed in duplicate).”

[7] = Solubility (analytical certificates); assay type: physicochemical
[8] = Table 9; NMDA-induced currents; read-out: Patch Clamp IC50

| SMILES | ED50 [1] | pIC50 ([2]; Table 7; NMDA 200 μM with glycine 1 μM at -70 mV; read-out: Patch Clamp IC50) | pIC50 [2, 8] | Min Lethality ([3]; i.p., minimal lethal dose) | ED50 [4] | side effects in humans [5] | pIC50 ([2]; read-out: Patch Clamp IC50; Table 7; NMDA 200 μM with glycine 1 μM at -70 mV) | pIC50 ([2]; read-out: Patch Clamp IC50; Table 9; NMDA-induced currents) | selectivity ratio at 0.5 h [6] | Min Lethality ([3]; mouse, in vivo, ip) | Solubility [7] |
| --- | --- | --- | --- | --- | --- | --- | --- | --- | --- | --- | --- |
| CC1(C)CC(C)(C)CC(C)(N)C1 [Mrz 2/579, 1-amino-1,3,3,5,5-pentamethylcyclohexane] | 5.5 mg/kg | 5.89 | 5.89 | 108 mg/kg | 3.7 mg/kg | – | – | – | – | – | – |
| CC12CC3CC(C)(C1)CC(N)(C3)C2 [Memantine, reference compound] | – | – | – | > 108 mg/kg | – | rarely produce side effects at the therapeutic doses | 5.64 | 5.54 | 2.5 | – | – |
| CC[C@H]1CC(C)(C)C[C@](C)(N)C1 [MRZ 2/682, (1R, 5S) trans-3-Ethyl-1,5,5-trimethylcyclohexylamine hydrochloride] | – | – | 5.41 | – | – | – | – | – | 3.6 | > 50 mg/kg | soluble in chloroform, poor soluble in water |
